Reference: patent US20260258420A1, “COMPOSITIONS AND METHODS FOR THE TREATMENT OF HUMAN PAPILLOMAVIRUS-DRIVEN CANCERS” (priority 2023, published 2026)

What was measured:
Assay type in all cases: cell-based
[1] = system: 16 HPV-positive and 17 HPV-negative HNSCC and cervical squamous cancer cell lines; experiment: High-throughput drug screen (HTDS), whole panel, comparison by HPV status; settings: for efficacy in HPV-positive vs HPV-negative cell lines: AOC_LD as a dichotomous variable; for odds ratio: sensitivity in HPV-positive vs HPV-negative cell lines; for cell death: at concentrations known to inhibit mTOR
Experimental: (§1) The concordance correlation coefficient was computed to assess the reproducibility of the normalized growth rates of the 2 replicates. […] A chi-square test was applied to compare drug classification and the cluster membership. The Fisher exact test was applied to compare mutations status (wild-type and mutant) and drugs' response data (sensitive and resistant).
(§2) The effects of 864 unique drugs from 51 classes was tested in 16 HPV-positive and 17 HPV-negative HNSCC and cervical squamous cancer cell lines (Table 2) that were characterized previously (Kaiu, et al., Oncotarget 2017; 8(49):86369-83).

[2] = system: 16 HPV-positive HNSCC and cervical squamous cancer cell lines; experiment: High-throughput drug screen (HTDS), cell death by AOC_LD, HPV-positive cell lines; settings: for HPV positive Resistant (number of cell lines): resistant = AOC_LD 0; for HPV positive Sensitive (number of cell lines): sensitive = AOC_LD greater than 0
Experimental: as §1, §2

[3] = system: 17 HPV-negative HNSCC and cervical squamous cancer cell lines; experiment: High-throughput drug screen (HTDS), cell death by AOC_LD, HPV-negative cell lines; settings: for HPV negative Resistant (number of cell lines): resistant = AOC_LD 0; for HPV negative Sensitive (number of cell lines): sensitive = AOC_LD greater than 0
Experimental: as §1, §2

Row | SMILES | efficacy in HPV-positive vs HPV-negative cell lines [1] | HPV positive Resistant (number of cell lines) [2] | HPV positive Sensitive (number of cell lines) [2] | HPV negative Resistant (number of cell lines) [3] | HPV negative Sensitive (number of cell lines) [3] | odds ratio [1] | cell death [1]
1 | Cc1csc(-c2nnc(Nc3ccc(Oc4ncccc4-c4ccnc(N)n4)cc3)c3ccccc23)c1 [AMG900] | tended to be more effective in HPV-positive cell lines | – | – | – | – | – | –
2 | COc1cc(NS(C)(=O)=O)ccc1Nc1c2ccccc2nc2ccccc12 [AMSACRINE] | – | 5 | 11 | 15 | 2 | – | –
3 | Clc1ccc(C2(c3ccc(-c4cn[nH]c4)cc3)CCNCC2)cc1 [AT7867] | – | 12 | 4 | 17 | 0 | Inf | –
4 | O=C(Nc1c[nH]nc1-c1nc2ccc(CN3CCOCC3)cc2[nH]1)NC1CC1 [AT9283] | – | 3 | 13 | 10 | 7 | – | –
5 | CNC(=O)c1ccccc1Sc1ccc2c(/C=C/c3ccccn3)n[nH]c2c1 [AXITINIB] | – | 8 | 8 | 16 | 1 | – | –
6 | COc1ccc(-c2ccc3c(N4CCOC[C@@H]4C)nc(N4CCOC[C@@H]4C)nc3n2)cc1CO [AZD8055] | – | 11 | 5 | 17 | 0 | Inf | –
7 | O=C(Nc1cccc(Nc2ncc(Br)c(NCCc3cnc[nH]3)n2)c1)N1CCCC1 [BX912] | – | 8 | 8 | 16 | 1 | 14.66 | –
8 | CC(C)C[C@H](NC(=O)[C@H](CCc1ccccc1)NC(=O)CN1CCOCC1)C(=O)N[C@@H](Cc1ccccc1)C(=O)N[C@@H](CC(C)C)C(=O)[C@@]1(C)CO1 [CARFILZOMIB] | – | 0 | 16 | 5 | 12 | Inf | –
9 | CN(C)c1ccc(-c2nc3ncc(Cl)c(N4CCN(CC(=O)Nc5nccs5)CC4)c3[nH]2)cc1 [CCT129202] | tended to be more effective in HPV-positive cell lines | – | – | – | – | – | –
10 | Cc1cc(CN2CCN(c3c(Br)cnc4nc(-c5ccc(N6CCN(C)CC6)cc5)[nH]c34)CC2)no1 [CCT137690] | tended to be more effective in HPV-positive cell lines | – | – | – | – | – | –
11 | COc1cc2c(c(OC)c1OC)-c1ccc(OC)c(=O)cc1[C@@H](NC(C)=O)CC2 [COLCHICINE] | – | – | 15 | – | 10 | – | –
12 | Cc1nc(N)sc1-c1ccnc(Nc2ccc(N3CCOCC3)cc2)n1 [CYC116] | tended to be more effective in HPV-positive cell lines | 7 | 9 | 15 | 2 | – | –
13 | CN1CCN(c2ccc3nc(-c4c(N)c5c(F)cccc5[nH]c4=O)[nH]c3c2)CC1 [DOVITINIB] | – | 10 | 6 | 16 | 1 | – | –
14 | COc1cc([C@@H]2c3cc4c(cc3[C@@H](O[C@@H]3O[C@@H]5CO[C@@H](C)O[C@H]5[C@H](O)[C@H]3O)[C@H]3COC(=O)[C@H]23)OCO4)cc(OC)c1O [ETOPOSIDE] | – | 7 | 9 | 15 | 2 | – | –
15 | Nc1nc(F)nc2c1ncn2[C@@H]1O[C@H](CO)[C@@H](O)[C@@H]1O [FLUDARABINE] | – | 13 | 3 | 6 | 11 | – | –
16 | CCn1cc(-c2ccnc3[nH]c(-c4cccc(CN(C)C)c4)cc23)c(-c2ccc(NC(=O)N(C)C)cc2)n1 [GSK1070916] | tended to be more effective in HPV-positive cell lines | 4 | 12 | 12 | 5 | – | –
17 | O=C(O)[C@]1(Cc2cccc(Nc3nccs3)n2)CC[C@@H](Oc2cccc(Cl)c2F)CC1 [MK5108] | tended to be more effective in HPV-positive cell lines | – | – | – | – | – | –
18 | O=C(O)c1ccc(Nc2ncc3c(n2)-c2ccc(Cl)cc2C(c2c(F)cccc2F)=NC3)cc1 [MLN8054] | tended to be more effective in HPV-positive cell lines | – | – | – | – | – | –
19 | CCc1cccc(CC)c1NC(=O)N1Cc2n[nH]c(NC(=O)c3ccc(N4CCN(C)CC4)cc3)c2C1 [PHA680632] | tended to be more effective in HPV-positive cell lines | – | – | – | – | – | –
20 | CCS(=O)(=O)c1cccc(-c2cc(C(=O)NC3CCN(C)CC3)c(C)c3[nH]c4ncc(C)cc4c23)c1 [TAK901] | tended to be more effective in HPV-positive cell lines | – | – | – | – | – | –
21 | CO[C@@H](C(=O)N1Cc2n[nH]c(NC(=O)c3ccc(N4CCN(C)CC4)cc3)c2C1)c1ccccc1 [danusertib] | tended to be more effective in HPV-positive cell lines | – | – | – | – | – | –
22 | CO[C@H]1C[C@@H]2CC[C@@H](C)[C@@](O)(O2)C(=O)C(=O)N2CCCC[C@H]2C(=O)O[C@H]([C@H](C)C[C@@H]2CC[C@@H](OCCO)[C@H](OC)C2)CC(=O)[C@H](C)/C=C(\C)[C@@H](O)[C@@H](OC)C(=O)[C@H](C)C[C@H](C)/C=C/C=C/C=C/1C [everolimus] | – | – | – | – | – | – | caused cell death only in a single cell line
23 | COc1ccc([C@@H]2CC(=O)c3c(O)cc(O[C@@H]4O[C@H](CO[C@@H]5O[C@@H](C)[C@H](O)[C@@H](O)[C@H]5O)[C@@H](O)[C@H](O)[C@H]4O)cc3O2)cc1O [hesperidin] | more effective in HPV-positive than in HPV-negative cell lines | – | – | – | – | – | –
24 | CO[C@H]1C[C@@H]2CC[C@@H](C)[C@@](O)(O2)C(=O)C(=O)N2CCCC[C@H]2C(=O)O[C@H]([C@H](C)C[C@@H]2CC[C@@H](OP(C)(C)=O)[C@H](OC)C2)CC(=O)[C@H](C)/C=C(\C)[C@@H](O)[C@@H](OC)C(=O)[C@H](C)C[C@H](C)/C=C/C=C/C=C/1C [ridaforolimus] | – | – | – | – | – | – | caused cell death only in a single cell line
